Data: patent US12462378B2, “Information processing device, screening device, information processing method, screening method, and program” (Kyoto University, priority 2019, dated 2025)
Where a SMILES comes first, the peptide text is derived from it. The star is where a group is joined. Cbz = O=C(OCc1ccccc1)*; CH2F = FC*

How the values were obtained:
[1] = system: nerve cells differentiated from iPS cells; experiment: Single cell analysis (single cell RNA sequence, UMAP clustering) of nerve cells with Z-VAD-FMK; assay type: cell-based, human
Protocol: FIG. 15 is a view showing the schematics of a proposed method. As illustrated in the drawing, Z-VAD-FMK is added to nerve cells and changes in gene expression of individual cells are observed before cell death occurs (before caspase-3 activation occurs) (single cell RNA sequence=WHAT in the drawing). At the same time, the images are acquired, and the CNN-based prediction model MDL is used to check where the changes are occurring (WHERE in the drawing). In this manner, a method for identifying the molecules, where and what is occurring before cell death, is proposed.
Single cell analysis was performed using the above-described proposed method. FIG. 16 is a view illustrating an example of clustering results of cells. While changing the concentration of Z-VAD-FMK added to the nerve cells to 0 [μM], 0.2 [μM], and 25 [μM], the cell population was separated into a total of 15 types of clusters ranging from 0 to 14 by using a visualization method (one type of dimensional compression method) which is called UMAP (uMAP).
FIG. 22 is a view illustrating a relationship between the Z-VAD-FMK concentration and the cluster size. […] As a result, the cluster 12 was identified as a cluster that satisfies the conditions.

[2] = system: nerve cells differentiated from iPS cells; experiment: Prediction model MDL score of nerve cell images versus Z-VAD-FMK concentration; assay type: cell-based, human; settings: FIG. 14, higher score = greater probability that the cell will survive
Source text: Activated caspase-3 in apoptotic nerve cells was detected by using a fluorogenic substrate consisting of a four-amino acid peptide DEVD (SEQ ID NO: 1) bound to a nucleic acid binding dye (product name “CellEvent Caspase-3/7 Green Detection Reagent”, Thermo Fisher Scientific Inc.). Since the DEVD peptides inhibit the binding of fluorescent dyes to DNA, the above-described fluorogenic substrate is essentially non-fluorescent. However, when activated caspase-3 in dead cells cleaves the DEVD peptide, a fluorescent dye binds to the DNA to cause fluorescence, which can be detected using a standard FITC green filter set of a standard time lapse imaging system (product name “Incucyte ZOOM”, Essen Bioscience, Ltd.) (exposure time 400 ms). Images were photographed over time every 6 hours after drug administration.
The original size of the single-well image captured by using the time lapse imaging system (product name “Incucyte ZOOM”, Essen Bioscience, Ltd.) was 1,392×1,038 pixels, and four images were cut out from this image and extracted as the cropped image IMGC. The original image was divided evenly into four regions, and square images were taken out from the center of each region. The size of the trimmed cropped image IMGC was selected from 128×128, 256×256, 512×512, 768×768, and 1,020×1,020 in width×height. […]

SMILES: COC(=O)C[C@H](NC(=O)[C@H](C)NC(=O)[C@@H](NC(=O)OCc1ccccc1)C(C)C)C(=O)CF [Z-VAD-FMK] (Cbz-Val-Ala-Asp(OMe)-CH2F)
- effect of Z-VAD-FMK concentration on cluster shapes of UMAP expanded cell populations ([1]; 0, 0.2 and 25 μM Z-VAD-FMK, 15 clusters (0 to 14), FIGS. 16 to 21): no effect on most of the cell populations
- cluster size (number of cells in cluster 12, caspase-3 activated) ([1]; cluster 12, with addition of Z-VAD-FMK, FIG. 22): the number of cells in its own cluster decreased with the addition of Z-VAD-FMK
- score of the prediction model MDL (probabilistic value related to the life or death of cells) [2]: the higher the Z-VAD-FMK concentration, the higher the score
